“Also recorded” adds a separate entry of the source.
These compounds were tested on breast cancer-derived cells BT474 (assay: Cell survival assay (alamarBlue), cancer-derived cells). Details: 72 hr.
Format: cell-based, human
Experimental: (§1) Normal cells and cancer-derived cells were plated at a density of 10^4 cells/well (100 μl) in a 96-well plate. On the next day, Olaparib, a NAD-mimetic, or 5F02, 4D11, 5A03, 5H03, 1C09, new non-NAD-like inhibitors, were added. Cells were grown for 72 hr. 20 μl/well of alamarBlue® reagent was added; fluorescence readings were taken.
(§2) The cytotoxic effects of treatment by classical inhibitor Olaparib and the new inhibitors was compared using breast cancer-derived cells BT474 and normal breast-derived cells HMEK.
In the case of `O=C(c1cc(Cc2n[nH]c(=O)c3ccccc23)ccc1F)N1CCN(C(=O)C2CC2)CC1` [Olaparib], the “cytotoxic effect on cancer-derived cells” value is reported as “eliminate cancer-derived cells at similar concentrations; also recorded: killed both normal and cancer cells”.

The compounds below were run on normal breast-derived cells HMEK (assay: Cell survival assay (alamarBlue), normal cells). Details: 72 hr.
Format: cell-based, human
Experimental: as §1, §2
In the case of `O=C(c1cc(Cc2n[nH]c(=O)c3ccccc23)ccc1F)N1CCN(C(=O)C2CC2)CC1` [Olaparib], the “cytotoxicity to normal cells” value is reported as “killed both normal and cancer cells”.

What follows are compounds tested against PARP-1 (Homo sapiens, UniProt P09874) (assay: PARP-1 activation screening assay, 384-well ELISA plate coated with histone H4). Details: pilot screen of ICCB Known Bioactives library; pADPr ELISA signal (absorbance at 650 or 450 nm as indicator of PARP-1 activity).
Chain of PARP-1 (P09874 whole entry): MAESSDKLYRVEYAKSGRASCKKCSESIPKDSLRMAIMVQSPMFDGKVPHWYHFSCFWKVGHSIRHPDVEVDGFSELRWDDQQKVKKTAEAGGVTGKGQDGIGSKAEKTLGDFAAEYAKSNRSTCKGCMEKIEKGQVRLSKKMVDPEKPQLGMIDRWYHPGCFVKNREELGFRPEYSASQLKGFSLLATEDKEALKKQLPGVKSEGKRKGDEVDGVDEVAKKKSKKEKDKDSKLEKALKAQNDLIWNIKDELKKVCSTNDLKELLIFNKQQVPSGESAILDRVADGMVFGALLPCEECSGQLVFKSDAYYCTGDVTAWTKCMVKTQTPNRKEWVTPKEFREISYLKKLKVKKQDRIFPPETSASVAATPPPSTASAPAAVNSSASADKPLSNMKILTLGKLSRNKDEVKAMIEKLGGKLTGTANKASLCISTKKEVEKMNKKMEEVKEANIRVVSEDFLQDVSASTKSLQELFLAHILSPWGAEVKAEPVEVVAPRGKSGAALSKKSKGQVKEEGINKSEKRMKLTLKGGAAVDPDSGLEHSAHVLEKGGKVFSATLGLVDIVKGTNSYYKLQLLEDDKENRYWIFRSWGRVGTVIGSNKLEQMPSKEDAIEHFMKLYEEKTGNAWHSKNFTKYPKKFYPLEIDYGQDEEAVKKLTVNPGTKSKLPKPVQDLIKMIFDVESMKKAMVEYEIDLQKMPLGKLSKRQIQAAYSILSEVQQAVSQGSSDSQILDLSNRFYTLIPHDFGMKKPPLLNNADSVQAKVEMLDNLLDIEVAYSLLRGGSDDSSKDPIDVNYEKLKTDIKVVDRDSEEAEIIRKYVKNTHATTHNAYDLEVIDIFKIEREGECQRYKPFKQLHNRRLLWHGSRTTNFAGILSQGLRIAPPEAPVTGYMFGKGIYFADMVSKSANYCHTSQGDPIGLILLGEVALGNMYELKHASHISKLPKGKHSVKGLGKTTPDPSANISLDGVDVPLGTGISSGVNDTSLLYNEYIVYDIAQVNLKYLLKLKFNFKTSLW
Description: The screening platform included a PARP1 activation assay in plates coated with histone H4. PARP1 reactions were set up in each well of the plate in the presence of a single small molecule test compound or a positive or negative control compound. The product of the reaction between PARP1 and H4, poly-ADP-ribose, was then quantified, with absorbance at 650 nm or 450 nm used as an indicator of PARP1 activity (FIG. 2A).
A PARP-1 activation screening assay was designed using a 384-well ELISA plate coated with histone H4 protein-activator. PARP-1 reactions were set up in each well in presence of single a small molecule compound or a positive and a negative control. […] The product of these reactions, poly-(ADP)-ribose, was quantified. Absorbance at 650 or 450 nm was used as an indicator of PARP-1 activity (FIG. 2A). As the test library for this screening assay, the ICCB Known Bioactives library of 480 compounds was used, which includes all popular PARP-1 inhibitors.
`CN(C)C[C@H](O)Cn1c2ccc(Br)cc2c2cc(Br)ccc21` (racemic) [Wiskostatin] showed a Value of 1.90.
Compound `O=c1[nH]c2ccccc2c2ccccc12` [6(5H)-Phenanthridinone] has a Value of 0.05.
`Br.NC1CCc2cc(O)c(O)cc2C1` (stereo not drawn) [6,7-ADTN HBr] showed a Value of 0.50.
For `N#C/C(=C\c1ccc(O)c(O)c1)C(N)=S` [AG213 (Tyrphostin 47)], the Value was 1.28.
`CCOC(=O)CN1C(=O)CC(C[C@@H](O)[C@@H]2C[C@@H](C)C[C@H](C)C2=O)CC1=O` [Cycloheximide-N-ethylethanoate] was tested, and the Value was 1.89.
Compound `C=C1[C@@H](C)[C@H]2[C@H](Cc3ccccc3)NC(=O)[C@]23OC(=O)/C=C/[C@H](O)CCC[C@@H](C)C/C=C/[C@H]3[C@@H]1O` [Cytochalasin B] has a Value of 2.03.
With `C=C1O[C@@](CO)(n2cnc3c(N)ncnc32)[C@H](O)[C@@H]1O` [Decoyinine] the Value was 2.00.
In the case of `[Cl-].c1ccc2c(c1)[I+]c1ccccc1-2` [Diphenyleneiodonium Cl], the Value is reported as 0.20.
In the case of `CNc1ccc2oc(C[C@H]3O[C@@]4(CC[C@H]3C)O[C@H]([C@H](C)C(=O)c3ccc[nH]3)[C@H](C)C[C@H]4C)nc2c1C(=O)O` [Formula A-23187, A-23187], the Value is reported as 1.22.
`NCCNS(=O)(=O)c1cccc2cnccc12` [Formula H9] gave a Value of 0.05.
For `CC(C)Cn1c(=O)n(C)c(=O)c2[nH]cnc21` [IBMX], the Value was 0.94.
For `CN(C)C(=O)C(CCN1CCC(O)(c2ccc(Cl)cc2)CC1)(c1ccccc1)c1ccccc1` [Loperamide], the Value was 2.34.
In the case of `CC1(C)Oc2ccc(C#N)cc2[C@@H](OC2=CC(=O)CC2)[C@@H]1O` [PCO-400], the Value is reported as 2.01.
For `COc1cccc(-c2cc(=O)c3ccccc3o2)c1N` [PD 98059], the Value was 0.69.
`CC[N+](C)(CC)CCC[n+]1c(-c2ccccc2)c2cc(N)ccc2c2ccc(N)cc21.[I-].[I-]` [Propidium iodide] showed a Value of 0.18.
`O=c1c(O)c(-c2ccc(O)c(O)c2)oc2cc(O)cc(O)c12` [Quercetin] gave a Value of 0.18.
